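Five concentrations, 48 hours, 96-well plates. GI50 = concentration required for 50% inhibition of growth.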 The source made the active and inactive calls. Cut-off read from the data, not from the text of the source: active = GI50 up to about 1.1 µM and inactive = higher.
What was measured:
Assay in all cases: NCI tumour cell line growth inhibition, 48 h
HOP-92 = tested on: HOP-92
SK-MEL-28 = tested on: SK-MEL-28
MDA-MB-231 = tested on: MDA-MB-231
MCF7 = tested on: MCF7
A549 = tested on: A549
HT-29 = tested on: HT-29
A498 = tested on: A498
K562 = tested on: K562
OVCAR-3 = tested on: OVCAR-3
MOLT-4 = tested on: MOLT-4
MDA-MB-435 = tested on: MDA-MB-435
SF-268 = tested on: SF-268
HCT-15 = tested on: HCT-15
EKVX = tested on: EKVX
HL-60 = tested on: HL-60
OVCAR-5 = tested on: OVCAR-5
UACC-257 = tested on: UACC-257
SR = tested on: SR
KM12 = tested on: KM12
Hs-578T = tested on: Hs-578T

SMILES | GI50 (HOP-92) | GI50 (SK-MEL-28) | GI50 (MDA-MB-231) | GI50 (MCF7) | GI50 (A549) | GI50 (HT-29) | GI50 (A498) | GI50 (K562) | GI50 (OVCAR-3) | GI50 (MOLT-4) | GI50 (MDA-MB-435) | GI50 (SF-268) | GI50 (HCT-15) [µM] | GI50 (EKVX) | GI50 (HL-60) | GI50 (OVCAR-5) | GI50 (UACC-257) | GI50 (SR) | GI50 (KM12) | GI50 (Hs-578T)
COc1c(O)cc2c(c1O)C(=O)C(Cc1ccc(O)cc1)CO2 (stereo not given) | 68.2 µM (inactive) | 59.7 µM (inactive) | > 100 µM (inactive) | > 100 µM (inactive) | > 100 µM (inactive) | > 100 µM (inactive) | > 100 µM (inactive) | 22.8 µM (inactive) | 93.1 µM (inactive) | 44.5 µM (inactive) | 28 µM (inactive) | > 100 µM (inactive) | 44 | > 100 µM (inactive) | 28.1 µM (inactive) | > 100 µM (inactive) | > 100 µM (inactive) | 24.9 µM (inactive) | 89.3 µM (inactive) | > 100 µM (inactive)
C=CCC(C(=O)O)c1ccccc1 (stereo not given) | > 100 µM (inactive) | > 100 µM (inactive) | > 100 µM (inactive) | > 100 µM (inactive) | > 100 µM (inactive) | > 100 µM (inactive) | > 100 µM (inactive) | > 100 µM (inactive) | > 100 µM (inactive) | > 100 µM (inactive) | > 100 µM (inactive) | > 100 µM (inactive) | > 100 | > 100 µM (inactive) | > 100 µM (inactive) | > 100 µM (inactive) | > 100 µM (inactive) | > 100 µM (inactive) | > 100 µM (inactive) | > 100 µM (inactive)
O=C1c2ccccc2C(=O)c2c(NCCCNCCO)ccc(NCCCNCCO)c21 | 10.7 µM (inactive) | 12 µM (inactive) | 11.6 µM (inactive) | 2.88 µM (inactive) | 11.5 µM (inactive) | 4.82 µM (inactive) | 15.9 µM (inactive) | 2.64 µM (inactive) | 5.71 µM (inactive) | 3 µM (inactive) | 12.6 µM (inactive) | 4.82 µM (inactive) | 12.9 | 11.8 µM (inactive) | 8.97 µM (inactive) | 8.91 µM (inactive) | 15.2 µM (inactive) | 3.65 µM (inactive) | 5.57 µM (inactive) | 5.52 µM (inactive)
CC#CC(O)(C(=O)OC1CCCN(C)C1)C1=CC=CCC1 (stereo not given) | > 100 µM (inactive) | > 100 µM (inactive) | > 100 µM (inactive) | > 100 µM (inactive) | > 100 µM (inactive) | > 100 µM (inactive) | > 100 µM (inactive) | > 100 µM (inactive) | > 100 µM (inactive) | > 100 µM (inactive) | > 100 µM (inactive) | > 100 µM (inactive) | > 100 | > 100 µM (inactive) | > 100 µM (inactive) | > 100 µM (inactive) | > 100 µM (inactive) | > 100 µM (inactive) | > 100 µM (inactive) | > 100 µM (inactive)
O=C1CC(c2ccc([N+](=O)[O-])cc2)C2(C(=O)NC(=S)NC2=O)C(c2ccc([N+](=O)[O-])cc2)C1 (stereo not given) | 26.9 µM (inactive) | 40.7 µM (inactive) | 13.6 µM (inactive) | 21.4 µM (inactive) | 19.6 µM (inactive) | 59.8 µM (inactive) | 32.4 µM (inactive) | 62.5 µM (inactive) | 32 µM (inactive) | 73.3 µM (inactive) | 15 µM (inactive) | 21.4 µM (inactive) | 18.9 | 32.7 µM (inactive) | 51.6 µM (inactive) | 35.5 µM (inactive) | 18.1 µM (inactive) | 52.2 µM (inactive) | 18.5 µM (inactive) | 25.8 µM (inactive)
O=C(CC(=O)Nc1ccccc1)NNC(Sc1ccccc1)c1cc(/N=N/c2ccc(Br)cc2)ccc1O (stereo not given) | 4.51 µM (inactive) | 2.92 µM (inactive) | 2.24 µM (inactive) | 1.78 µM (inactive) | 3.85 µM (inactive) | 8.13 µM (inactive) | 1.91 µM (inactive) | 2.54 µM (inactive) | 0.394 µM (active) | 0.0916 µM (active) | 4.28 µM (inactive) | 0.587 µM (active) | 0.678 | 8.83 µM (inactive) | 0.356 µM (active) | 7.98 µM (inactive) | 4.29 µM (inactive) | 0.353 µM (active) | 4.07 µM (inactive) | > 10 µM (inactive)
N=C(N)SCCCN | 4.94 µM (inactive) | 28.2 µM (inactive) | 3.3 µM (inactive) | 5.5 µM (inactive) | 37.7 µM (inactive) | 16 µM (inactive) | 32.1 µM (inactive) | 6.03 µM (inactive) | 9.57 µM (inactive) | 0.368 µM (active) | 3.18 µM (inactive) | 5.3 µM (inactive) | 5.02 | 35.4 µM (inactive) | 1.87 µM (inactive) | 32.6 µM (inactive) | 5.4 µM (inactive) | 3.3 µM (inactive) | 24.2 µM (inactive) | 5.61 µM (inactive)
CCc1nc(N)nc(N)c1-c1ccc(N2CCOCC2)c(N=[N+]=[N-])c1 | 78.3 µM (inactive) | > 100 µM (inactive) | > 100 µM (inactive) | 71.3 µM (inactive) | 21.2 µM (inactive) | 31.8 µM (inactive) | > 92 µM (inactive) | 8.79 µM (inactive) | 77.6 µM (inactive) | 64.3 µM (inactive) | 55.1 µM (inactive) | 44.7 µM (inactive) | 20.3 | 66.7 µM (inactive) | > 28.2 µM (inactive) | > 100 µM (inactive) | > 100 µM (inactive) | 36.9 µM (inactive) | 70.5 µM (inactive) | > 100 µM (inactive)
Cc1cccc(C)c1NC(=O)C(C#N)C1=C(Cl)C(=O)c2ccccc2C1=O (stereo not given) | 10.2 µM (inactive) | 20.2 µM (inactive) | 18.6 µM (inactive) | 20 µM (inactive) | 19.7 µM (inactive) | 18.6 µM (inactive) | 14.8 µM (inactive) | 2.77 µM (inactive) | 11.3 µM (inactive) | 1.93 µM (inactive) | 17.2 µM (inactive) | 15.5 µM (inactive) | 19.1 | 21.4 µM (inactive) | 5.53 µM (inactive) | 19.3 µM (inactive) | 13.9 µM (inactive) | 2.31 µM (inactive) | 16.8 µM (inactive) | 12.1 µM (inactive)
CCOC(=O)/C=C/C(Br)=C(Br)/C=C/C(=O)OCC | 19.1 µM (inactive) | 12.4 µM (inactive) | 16.3 µM (inactive) | 7.93 µM (inactive) | 22.5 µM (inactive) | 14.8 µM (inactive) | 26.9 µM (inactive) | 2.65 µM (inactive) | 12.1 µM (inactive) | 1.83 µM (inactive) | 7.13 µM (inactive) | 18 µM (inactive) | 4.92 | 17.9 µM (inactive) | 5.85 µM (inactive) | 18.6 µM (inactive) | 18.2 µM (inactive) | 7.8 µM (inactive) | 16.6 µM (inactive) | 29.2 µM (inactive)
O=C1/C(=C\c2ccccc2)C(NC2CCCCC2)c2ccccc21 (stereo not given) | 1.96 µM (inactive) | 2.54 µM (inactive) | 2.23 µM (inactive) | 1.37 µM (inactive) | 4.05 µM (inactive) | 1.42 µM (inactive) | 18.6 µM (inactive) | 0.46 µM (active) | 1.24 µM (inactive) | 0.817 µM (active) | 1.52 µM (inactive) | 3.46 µM (inactive) | 2.15 | 3.3 µM (inactive) | 0.883 µM (active) | 4.17 µM (inactive) | 1.29 µM (inactive) | 0.206 µM (active) | 4.44 µM (inactive) | 3.18 µM (inactive)
CCCC(=O)OC(OC(=O)CCC)c1ccc([N+](=O)[O-])o1 | 22.9 µM (inactive) | 20.4 µM (inactive) | 27.5 µM (inactive) | 16.9 µM (inactive) | > 100 µM (inactive) | 22.6 µM (inactive) | > 100 µM (inactive) | 34 µM (inactive) | 20.9 µM (inactive) | 31.1 µM (inactive) | 20.7 µM (inactive) | 65.6 µM (inactive) | 15.7 | 26.1 µM (inactive) | 26.3 µM (inactive) | 21.8 µM (inactive) | 21.4 µM (inactive) | 18 µM (inactive) | 37.6 µM (inactive) | 35.5 µM (inactive)
CCN(CC)CCNc1ccc2nc(C)n3c4ccc(OC)cc4c(=O)c1c23 | 5.92 µM (inactive) | 10.4 µM (inactive) | 0.423 µM (active) | 0.354 µM (active) | 0.668 µM (active) | 0.323 µM (active) | 3.7 µM (inactive) | 0.401 µM (active) | 3.14 µM (inactive) | 0.0959 µM (active) | 11.2 µM (inactive) | 0.979 µM (active) | 1.22 | 1.69 µM (inactive) | 1.17 µM (inactive) | 4.82 µM (inactive) | 8.75 µM (inactive) | 0.165 µM (active) | 1.8 µM (inactive) | 1.04 µM (active)
O=[N+]([O-])C(/C=C(\Cl)[N+](=O)[O-])=C(Nc1ccccc1)Nc1ccccc1 | 4.69 µM (inactive) | 9.86 µM (inactive) | 10.7 µM (inactive) | 0.843 µM (active) | 17 µM (inactive) | 6.21 µM (inactive) | 17.9 µM (inactive) | 2.94 µM (inactive) | 5.19 µM (inactive) | 1.75 µM (inactive) | 5 µM (inactive) | 14.3 µM (inactive) | 8.26 | 13.5 µM (inactive) | 2.59 µM (inactive) | 5.36 µM (inactive) | 13.9 µM (inactive) | 2.6 µM (inactive) | 11.9 µM (inactive) | 8.59 µM (inactive)

Reference: ChEMBL document CHEMBL1201862, “PubChem BioAssay data set” (2004)
